This passage reports IC50 results from ChEMBL document CHEMBL3745694, “Total synthesis and cytotoxic activities of longamide B, longamide B methyl ester, hanishin, and their analogues” (Bioorg Med Chem Lett, 2016).

Test [1] in a line: Cytotoxicity against human PC3 cells after 72 hrs by CCK-8 assay. It is filed as functional, cell-based. The following applies: PC-3, 72 h.
In another test the test system is A549. The test is described as follows: Cytotoxicity against human A549 cells after 72 hrs by CCK-8 assay. Format: functional, cell-based. The following applies: A549, 72 h.

With `COC(=O)CC1CNC(=O)c2cccn21` (configuration not stated), the IC50 (in test [1]; in the test on A549) was greater than 200 µM throughout.
For `COC(=O)CC1CNC(=O)c2ccc(Br)n21` (configuration not stated), the IC50 in test [1] was 70 µM; with A549, 65 µM.
With `CCOC(=O)CC1CNC(=O)c2ccc(Br)n21` (configuration not stated), the IC50 in test [1] was determined as 29 µM; with A549 it was 32 µM.
As for `COC(=O)Cc1c[nH]c(=O)c2ccc(Br)n12`, the values for the IC50 (in test [1]; with A549) were 176 µM and 165 µM, respectively.
For `O=C(O)CC1CNC(=O)c2ccc(Br)n21` (configuration not stated) the same measures were greater than 200 µM and greater than 200 µM.
With `COC(=O)Cc1c[nH]c(=O)c2cccn12`, the IC50 (in test [1]; in the test with A549) was greater than 200 µM in each case.
For `COC(=O)Cc1c[nH]c(=O)c2cc(Br)c(Br)n12`, the IC50 (in test [1]; with A549) was greater than 200 µM in each case.
For the compound `CCOC(=O)CC1CNC(=O)c2cc(Br)c(Br)n21` (racemic), the IC50 in test [1] turned out to be 39 µM; in the test on A549, 41 µM.
For `O=C(O)CC1CNC(=O)c2cc(Br)c(Br)n21` (racemic), the IC50 (in test [1]; in the test on A549) was greater than 200 µM throughout.
In the case of `COC(=O)CC1CNC(=O)c2cc(Br)c(Br)n21` (racemic), the results for the IC50 (in test [1]; in the test with A549) were 79 µM and 82 µM, respectively.
The like results for `CO[C@@]12[C@H](COC(N)=O)C3=C(C(=O)C(C)=C(N)C3=O)N1C[C@@H]1N[C@@H]12` [MITOMYCIN] were, in that order, 1.4 µM and 1.7 µM.
